From ChEMBL document CHEMBL2029202, “Towards a KCC2 blocker pharmacophore model” (Bioorg Med Chem Lett, 2012)
pIC50: −log10 of the molar value.

biological target: T1, Solute carrier family 12 member 5 (Rattus norvegicus, UniProt Q63633); assay: Inhibition of rat KCC2 expressed in human Sk-Hep cells assessed as […] off Rb+ flux by atomic absorption spectroscopic analysis; assay type: cell-based
T1 sequence (Q63633 whole entry): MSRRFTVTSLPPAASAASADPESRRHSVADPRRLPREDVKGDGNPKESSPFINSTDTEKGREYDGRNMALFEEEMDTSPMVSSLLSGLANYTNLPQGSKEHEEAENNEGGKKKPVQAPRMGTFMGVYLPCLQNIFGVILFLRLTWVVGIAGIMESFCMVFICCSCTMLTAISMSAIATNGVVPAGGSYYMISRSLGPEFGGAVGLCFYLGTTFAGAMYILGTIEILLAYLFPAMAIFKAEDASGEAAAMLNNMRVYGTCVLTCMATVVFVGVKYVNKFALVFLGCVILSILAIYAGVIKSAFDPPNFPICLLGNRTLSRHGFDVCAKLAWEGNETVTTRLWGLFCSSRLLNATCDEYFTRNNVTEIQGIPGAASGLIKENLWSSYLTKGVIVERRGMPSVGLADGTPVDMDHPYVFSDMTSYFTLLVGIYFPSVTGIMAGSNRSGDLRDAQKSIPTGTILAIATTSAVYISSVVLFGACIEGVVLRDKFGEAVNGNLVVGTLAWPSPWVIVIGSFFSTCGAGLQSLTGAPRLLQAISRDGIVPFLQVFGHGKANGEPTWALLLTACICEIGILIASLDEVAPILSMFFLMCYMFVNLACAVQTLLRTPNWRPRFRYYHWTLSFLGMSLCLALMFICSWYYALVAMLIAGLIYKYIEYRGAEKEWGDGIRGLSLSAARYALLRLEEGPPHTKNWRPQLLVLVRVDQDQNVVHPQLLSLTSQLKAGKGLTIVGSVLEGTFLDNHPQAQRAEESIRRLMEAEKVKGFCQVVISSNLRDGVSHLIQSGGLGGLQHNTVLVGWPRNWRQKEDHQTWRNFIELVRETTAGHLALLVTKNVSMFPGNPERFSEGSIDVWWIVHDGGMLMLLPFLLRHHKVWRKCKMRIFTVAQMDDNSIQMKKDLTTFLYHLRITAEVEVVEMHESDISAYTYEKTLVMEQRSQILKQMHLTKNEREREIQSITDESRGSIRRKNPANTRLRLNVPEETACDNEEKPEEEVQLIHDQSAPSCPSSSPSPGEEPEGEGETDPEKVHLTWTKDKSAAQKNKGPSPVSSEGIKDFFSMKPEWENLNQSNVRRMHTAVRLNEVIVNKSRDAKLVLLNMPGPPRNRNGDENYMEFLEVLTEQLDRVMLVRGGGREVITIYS

| Structure (SMILES) | pIC50 |
| --- | --- |
| CC(=O)N1CCC[C@]1(Cc1ccccc1)C(=O)OCc1ccccc1 | 4.30 |
| O=C(c1cc2ccccc2oc1=O)N1CCN(Cc2ccccc2)CC1 | 5.40 |
| O=C(c1cc2cc(Br)ccc2oc1=O)N1CCN(Cc2ccccc2)CC1 | 6.22 |
| CC(=O)N1c2ccccc2CC1(Cc1ccccc1)C(=O)OCc1ccccc1 (racemic) | 6.70 |
| O=C1CCCC2CCC(Cc3ccccc3)(C(=O)OCc3ccccc3)N12 (racemic) | 6.00 |

Continued, values first:

| pIC50 | Structure (SMILES) |
| --- | --- |
| 6.52 | CC(=O)N1CCC[C@@]1(Cc1ccccc1)C(=O)OCc1ccccc1 |
| 5.89 | CC(=O)N1CCCC1(Cc1ccccc1)C1=N[C@H](c2ccccc2)CO1 (mixture of isomers) |
| 6.10 | CC(=O)N1CCCC1(Cc1ccccc1)C(=O)OCc1ccccc1 (racemic) |
| 6.52 | CC(=O)N1CCCC1(Cc1ccccc1)C(=O)CCc1ccccc1 (racemic) |
| 6.70 | CC(=O)N1CCCC1(Cc1ccc(F)cc1)C(=O)CCc1ccc(F)cc1 (racemic) |
| 4.70 | CC(=O)N1CCCC1(COCc1ccccc1)Cc1ccccc1 (racemic) |
| 4.90 | CC(=O)N1CCCC1(Cc1ccccc1)c1nc(-c2ccccc2)co1 (racemic) |
